From patent US20050215543A1, “Methods of treating HIV infection” (priority 2004, published 2005)

Tested on: HIV-1 LAI
Assay: microbe, parasite or virus in culture
Conditions: for EC50: Human immunodeficiency virus 1, MT2, 120 h; for Combination Indices at % HIV Inhibition (Confidence Interval) 50%: 50% HIV inhibition; for Combination Indices at % HIV Inhibition (Confidence Interval) 50% / Combination Indices at % HIV Inhibition (Confidence Interval) 75% / Combination Indices at % HIV Inhibition (Confidence Interval) 90%: 95% CI in parenthesis; for Combination Indices at % HIV Inhibition (Confidence Interval) 75%: 75% HIV inhibition; for Combination Indices at % HIV Inhibition (Confidence Interval) 90%: 90% HIV inhibition; for Overall Result: two-drug combination with Compound 1, all ratios and effect levels, MT-2/HIV-1 LAI, RT assay
Method: Virus and cell lines. The T-cell lines, MT-2 and PM-1 were obtained through the AIDS Research and Reference Reagent Program, NIAID, and were contributed by Dr. D. Richman and Dr. R. Gallo, respectively. Both cell lines were cultured in RPMI 1640 medium supplemented with 10% fetal bovine serum, 2 mM L-glutamine and sub-cultured twice a week. The LAI strain of HIV-1 was obtained from the Fred Hutchinson Cancer Research Center, and the Bal strain was from NIH. Both virus stocks were amplified and titered in MT-2 cells (LAI) and PM-1 cells (Bal) using a virus infectivity assay.
Drug Susceptibility and Cytotoxicity Assays. For drug susceptibility assays, MT-2 cells were infected with HIV-1 LAI (or PM-1 cells with HIV-1 Bal) at an MOI of 0.005, and seeded into 96-well microtiter plates (0.1×10^6 cells/ml) containing serial dilutions of test compounds. […] Each drug ratio consisted of an array of 3-fold serial dilutions, and was performed in quadruplicate. The plates were incubated at 37° C./5% CO2. The MT-2 cells infected with HIV-1 LAI were incubated for 5 days. On day-five post-infection, 20 μl from each well was harvested and quantitated by a reverse transcriptase (RT) assay, or in samples involving non-nucleoside RT inhibitors, an MTS assay. The PM-1 cells infected with HIV-1 Bal and used for studying the combinations with CCR5 inhibitors were incubated for six days. On day-six post-infection, 20 μl from each well was harvested, 20- and 50-fold diluted and quantitated by p24 assay. Cytotoxicity assays were performed using uninfected cells, exposed to the same drug combinations, and incubated for six days. Cell viability was determined by an XTT assay. The CC50 values were calculated by using the exponential form of the median effect equation as mentioned below for calculation of EC50.
Analysis of Drug Combination Effects. For determination of CI values, drugs were diluted in a fixed ratio and multiple ratios were analyzed. The drug serial dilutions spanned a range of concentrations near the EC50 value of each compound, so that equivalent antiviral activities could be compared. Concentration-response curves were estimated for each individual drug and every combination using the median-effect equation. The equation was fit using a nonlinear regression routine (Proc Nlin) in PC SAS version 8.01 (SAS Institute Inc., SAS Version 8.01, Cary, N.C.: SAS Institute Inc., 1990).
In this equation, Fa stands for “fraction affected,” and represents the fraction of the viral load that has been inactivated. […] ED50 is drug concentration that is expected to reduce the amount of virus by 50%, and m is a parameter that reflects the slope of the concentration-response curve.
To assess antiviral effects of different drug combination treatments, combination indices (CIs) were calculated according to Chou and Rideout. The combination index was computed as CI=[D]1/[Dm]1+[D]2/[Dm]2
In this equation [Dm]1 and [Dm]2 are the concentrations of drugs that would individually produce a specific level of effect, while [D]1 and [D]2 are the concentrations of drugs in combination that would produce the same level of effect.
Theoretically, additivity is implied if the CI is equal to one, synergy if the CI is less than one, and antagonism if the CI is greater than one. […] At best, we can construct a range that contains the likely values for the CI, given the noise in the data. In this report, these ranges are reported in parentheses next to each point estimate of the CI. […] If the range fell entirely above 1.0, we would infer antagonistic behavior. If the range were to include 1.0, we would infer additivity.
In carrying out the combination experiments below, the EC50 for Compound 1 and each comparator compound was determined during the course of each study, and used in the subsequent data analysis.

[1] = combination with Compound 1, EC50 ratio 1:1 (Compound 1:comparator)
[2] = combination with Compound 1, EC50 ratio 1:1
[3] = combination with Compound 1, EC50 ratio 1:2.5
[4] = combination with Compound 1, EC50 ratio 2.5:1

| Structure (SMILES) | EC50 | Combination Indices at % HIV Inhibition (Confidence Interval) 50% [1] | Combination Indices at % HIV Inhibition (Confidence Interval) 75% [2] | Combination Indices at % HIV Inhibition (Confidence Interval) 90% [2] | Combination Indices at % HIV Inhibition (Confidence Interval) 50% [3] | Combination Indices at % HIV Inhibition (Confidence Interval) 75% [3] | Combination Indices at % HIV Inhibition (Confidence Interval) 90% [3] | Combination Indices at % HIV Inhibition (Confidence Interval) 50% [4] | Combination Indices at % HIV Inhibition (Confidence Interval) 75% [4] | Combination Indices at % HIV Inhibition (Confidence Interval) 90% [4] | Overall Result | Overall Result (listed as amprenavir) | Overall Result (listed as atazanavir) | Overall Result (listed as lopinavir) | Overall Result (listed as stavudine) | Overall Result (listed as saquinavir) |
| --- | --- | --- | --- | --- | --- | --- | --- | --- | --- | --- | --- | --- | --- | --- | --- | --- |
| CC(C)CN(C[C@@H](O)[C@H](Cc1ccccc1)NC(=O)O[C@H]1CCOC1)S(=O)(=O)c1ccc(N)cc1 [Amprenavir, amprenavir] | 21 nM | 0.89 (0.73, 1.06) | 0.93 (0.68, 1.17) | 0.96 (0.57, 1.36) | 1.30 (0.84, 1.76) | 1.08 (0.55, 1.62) | 0.90 (0.20, 1.60) | 0.41 (0.34, 0.48) | 0.32 (0.25, 0.40) | 0.25 (0.16, 0.35) | Additive- | additive to synergistic |  |  |  |  |
| COC(=O)N[C@H](C(=O)N[C@@H](Cc1ccccc1)[C@@H](O)CN(Cc1ccc(-c2ccccn2)cc1)NC(=O)[C@@H](NC(=O)OC)C(C)(C)C)C(C)(C)C [Atazanavir, atazanavir] | 1 nM | 1.04 (0.60, 1.49) | 0.58 (0.24, 0.93) | 0.33 (0.02, 0.64) | 0.23 (0.09, 0.38) | 0.35 (0.07, 0.63) | 0.52 (0.00, 1.24) | 0.88 (0.49, 1.27) | 0.67 (0.26, 1.09) | 0.52 (0.01, 1.04) | Additive- |  | additive to synergistic |  |  |  |
| CC[C@H](C)[C@H](NC(=O)[C@H](CCC(N)=O)NC(=O)[C@H](C)NC(=O)[C@H](CCC(N)=O)NC(=O)[C@H](CCC(=O)O)NC(=O)[C@H](CC(C)C)NC(=O)[C@H](CC(C)C)NC(=O)[C@H](C)NC(=O)[C@@H](NC(=O)[C@@H](NC(=O)[C@H](CCCCN)NC(=O)[C@H](CCC(N)=O)NC(=O)[C@H](CCC(=O)O)NC(=O)[C@H](Cc1c[nH]c2ccccc12)NC(=O)[C@H](CCC(=O)O)NC(=O)[C@H](CCC(N)=O)NC(=O)[C@H](Cc1c[nH]c2ccccc12)NC(C)=O)[C@@H](C)CC)[C@@H](C)O)C(=O)N[C@@H](CCC(N)=O)C(=O)N[C@@H](CCC(N)=O)C(=O)N[C@@H](CCC(=O)O)C(=O)N[C@@H](CCCCN)C(=O)N[C@@H](CC(N)=O)C(=O)N[C@@H](CCC(=O)O)C(=O)N[C@@H](Cc1ccc(O)cc1)C(=O)N[C@@H](CCC(=O)O)C(=O)N[C@@H](CC(C)C)C(=O)N[C@@H](CCC(N)=O)C(=O)N[C@@H](CCCCN)C(=O)N[C@@H](CC(C)C)C(=O)N[C@@H](CC(=O)O)C(=O)N[C@@H](CCCCN)C(=O)N[C@@H](Cc1c[nH]c2ccccc12)C(=O)N[C@@H](C)C(=O)N[C@@H](CO)C(=O)N[C@@H](CC(C)C)C(=O)N[C@@H](Cc1c[nH]c2ccccc12)C(=O)N[C@@H](CCC(=O)O)C(=O)N[C@@H](Cc1c[nH]c2ccccc12)C(=O)N[C@@H](Cc1ccccc1)C(N)=O [Compound T-1249] |  | 0.25 (0.20, 0.30) | 0.14 (0.10, 0.19) | 0.08 (0.04, 0.12) | 0.32 (0.28 0.35) | 0.17 (0.14, 0.19) | 0.09 (0.06, 0.11) | 0.19 (0.17, 0.22) | 0.14 (0.12, 0.16) | 0.10 (0.08, 0.13) |  |  |  |  |  |  |
| Cc1cccc(C)c1OCC(=O)N[C@@H](Cc1ccccc1)[C@@H](O)C[C@H](Cc1ccccc1)NC(=O)[C@H](C(C)C)N1CCCNC1=O [Lopinavir, lopinavir] | 1 nM | 0.23 (0.16, 0.42) | 0.22 (0.14, 0.30) | 0.26 (0.09, 0.44) | 0.13 (0.08, 0.18) | 0.06 (0.05, 0.08) | 0.03 (0.02, 0.05) | 1.13 (0.73, 1.52) | 0.50 (0.26, 0.74) | 0.30 (0.07, 0.52) | Synergistic |  |  | strong synergistic effects |  |  |
| Cc1cn([C@H]2C=C[C@@H](CO)O2)c(=O)[nH]c1=O [Stavudine, stavudine] | 250 nM | 1.47 (1.16, 1.79) | 0.60 (0.42, 0.78) | 0.25 (0.13, 0.38) | 0.50 (0.37, 0.64) | 0.29 (0.18, 0.40) | 0.18 (0.07, 0.28) | 0.69 (0.47, 0.91) | 0.55 (0.30, 0.80) | 0.45 (0.12, 0.78) | Additive- |  |  |  | additive-synergistic |  |
| CC(C)(C)NC(=O)[C@@H]1C[C@@H]2CCCC[C@@H]2CN1C[C@@H](O)[C@H](Cc1ccccc1)NC(=O)[C@H](CC(N)=O)NC(=O)c1ccc2ccccc2n1 [Saquinavir, saquinavir] | 9 nM | 0.97 (0.88, 1.07) | 0.92 (0.76, 1.07) | 0.87 (0.65, 1.09) | 0.22 (0.20, 0.24) | 0.26 (0.22, 0.29) | 0.29 (0.24, 0.35) | 1.07 (0.95, 1.20) | 0.92 (0.74, 1.10) | 0.80 (0.45, 1.14) | Additive- |  |  |  |  | additive to synergistic |
